Test results taken from patent publication US8952024B2, “Herbicidal pyrimidone derivatives” (E I du Pont de Nemours and Company, priority 2009, dated 2015).

Legend:
Format in all cases: in vivo
[1] = tested on: barnyardgrass (Echinochloa crus-galli); test: Test B flooded paddy test; settings: for Plant response rating, Flood, Barnyardgrass: 250 g ai/ha, flooded paddy test, visual rating on 0 to 100 scale (0 no effect, 100 complete control) after 13 to 15 days; for Plant response rating, Barnyardgrass: Flood (flooded paddy test), 13 to 15 days; for Barnyardgrass plant response rating: Flood, 31 g ai/ha, scale 0 to 100 (0 no effect, 100 complete control)
Outline: (§1)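 Ratings are visual, 0–100 (100 = complete control), taken versus untreated controls 13 to 15 days after treatment in the greenhouse. Compound went straight into paddy water held 3 cm above soil, applied to 2-leaf-stage plants of four species.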

[2] = tested on: ducksalad (Heteranthera limosa); test: Test B flooded paddy test; settings: for Plant response rating, Flood, Ducksalad: 250 g ai/ha, flooded paddy test, visual rating on 0 to 100 scale (0 no effect, 100 complete control) after 13 to 15 days; for Plant response rating, Ducksalad: Flood (flooded paddy test), 13 to 15 days; for Ducksalad plant response rating: Flood, 31 g ai/ha, scale 0 to 100 (0 no effect, 100 complete control)
Outline: as §1

[3] = tested on: prickly sida (Sida spinosa); test: Test D pre-/postemergence plant response
Text: (§2) Seeds of plant species selected from bermudagrass (Cynodon dactylon), Surinam grass (Brachiaria decumbens), large crabgrass (Digitaria sanguinalis), green foxtail (Setaria viridis), goosegrass (Eleusine indica), johnsongrass (Sorghum halepense), kochia (Kochia scoparia), morningglory (pitted morningglory, Ipomoea lacunosa), nutsedge (purple nutsedge, Cyperus rotundus), ragweed (common ragweed, Ambrosia elatior), black mustard (Brassica nigra), guineagrass (Panicum maximum), dallisgrass (Paspalum dilatatum), barnyardgrass (Echinochloa crus-galli), sandbur (southern sandbur, Cenchrus echinatus), sowthistle (common sowthistle, Sonchus oleraceous), prickly sida (Sida spinosa), Italian ryegrass (Lolium multiflorum), purslane (common purslane, Portulaca oleracea), signalgrass (broadleaf signalgrass, Brachiaria platyphylla), groundsel (common groundsel, Senecio vulgaris), chickweed (common chickweed, Stellaria media), dayflower (Virginia (VA) dayflower, Commelina virginica), bluegrass (annual bluegrass, Poa annua), naked crabgrass (Digitaria nuda), itchgrass (Rottboellia cochinchinensis), quackgrass (Elytrigia repens), field bindweed (Convolvulus arvensis), spanishneedles (Bidens bipinnata), mallow (common mallow, Malva sylvestris) and Russian thistle (Salsola kali), were planted into a blend of loam soil and sand and treated preemergence with test chemicals formulated in a non-phytotoxic solvent mixture which included a surfactant. At the same time, plants from these weed species were treated with postemergence applications of the test chemicals formulated in the same manner. Plants ranged in height from 2 to 18 cm (1- to 4-leaf stage) for postemergence treatments.
(§3) Treated plants and controls were maintained in a greenhouse for 14 to 21 days, after which time all species were visually evaluated and compared to controls. Plant response ratings, summarized in Table D, are based on a scale of 0 to 100 where 0 is no effect and 100 is complete control. A dash (-) response means no test result.

[4] = tested on: purslane (common purslane, Portulaca oleracea); test: Test D pre-/postemergence plant response
Text: as §2, §3

[5] = tested on: ragweed (common ragweed, Ambrosia elatior); test: Test D pre-/postemergence plant response
Text: as §2, §3

[6] = tested on: spanishneedles (Bidens bipinnata); test: Test D pre-/postemergence plant response
Text: as §2, §3

[7] = tested on: galium (catchweed bedstraw, Galium aparine); test: Test B pre-/postemergence plant response; settings: Preemergence; for Galium plant response rating: 250 g ai/ha, 0 to 100 scale
Outline: (§4)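 Test compounds, formulated in a non-phytotoxic solvent mixture with surfactant, are applied to the soil surface (loam and sand blend) right after seeding, or sprayed over plants at the 1- to 4-leaf stage grown in peat moss/vermiculite medium. After 13 to 15 days under glasshouse conditions, each species is scored visually from 0 (no effect) to 100 (complete control) against controls.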

[8] = tested on: nightshade (eastern black nightshade, Solanum ptycanthum); test: Test B pre-/postemergence plant response; settings: Preemergence; for Nightshade plant response rating: 250 g ai/ha, 0 to 100 scale
Outline: as §4

[9] = tested on: sunflower (common oilseed sunflower, Helianthus annuus); test: Test B pre-/postemergence plant response; settings: Preemergence; for Sunflower plant response rating: 250 g ai/ha, 0 to 100 scale
Outline: as §4

[10] = tested on: Russian thistle (Salsola kali); test: Test D pre-/postemergence plant response
Text: as §2, §3

[11] = 62 g ai/ha, scale of 0 to 100 where 0 is no effect and 100 is complete control
[12] = 125 g ai/ha, scale 0 to 100, 0 is no effect, 100 is complete control
[13] = Postemergence, 31 g ai/ha, scale 0 to 100
[14] = Postemergence, 62 g ai/ha, scale 0 to 100 (0 no effect, 100 complete control)
[15] = Postemergence, 125 g ai/ha, scale 0 to 100 (0 no effect, 100 complete control)
[16] = Preemergence, 16 g ai/ha, scale 0 to 100, 0 no effect, 100 complete control
[17] = Preemergence, 31 g ai/ha, scale 0 to 100 (0 no effect, 100 complete control)
[18] = Preemergence, 62 g ai/ha, scale 0 to 100
[19] = Preemergence, 125 g ai/ha, scale 0 to 100
[20] = Postemergence, 16 g ai/ha, scale 0 to 100
[21] = Preemergence, rate not given, scale 0 to 100, 0 no effect, 100 complete control
[22] = 31 g ai/ha, scale 0 to 100 (0 no effect, 100 complete control)
[23] = 62 g ai/ha, scale 0 to 100 (0 no effect, 100 complete control)
[24] = 125 g ai/ha, scale 0 to 100, 0 no effect, 100 complete control

## COCCn1c(-c2ccccc2)ncc(C(=O)C2=C(O)CCCC2=O)c1=O [Compound 85]
[1]
  Plant response rating, Flood, Barnyardgrass: 65
  Barnyardgrass plant response rating: 25
[1]; [11]
  Plant response rating, Barnyardgrass: 25
[1]; [12]
  Plant response rating, Barnyardgrass: 55
[2]
  Plant response rating, Flood, Ducksalad: 65
  Ducksalad plant response rating: 40
[2]; [11]
  Plant response rating, Ducksalad: 50
[2]; [12]
  Plant response rating, Ducksalad: 60
[3]; [13]
  Plant response rating, Prickly Sida: 95
[3]; [14]
  Plant response rating, Prickly Sida: 95
[3]; [15]
  Plant response rating, Prickly Sida: 98
[3]; [16]
  Plant response rating, Prickly Sida: 90
[3]; [17]
  Plant response rating, Prickly Sida: 100
[3]; [18]
  Plant response rating, Prickly Sida: 100
[3]; [19]
  Plant response rating, Prickly Sida: 100
[4]; [13]
  Plant response rating, Purslane: 80
[4]; [14]
  Plant response rating, Purslane: 90
[4]; [15]
  Plant response rating, Purslane: 90
[4]; [20]
  Plant response rating, Purslane: 75
[4]; [16]
  Plant response rating, Purslane: 80
[4]; [17]
  Plant response rating, Purslane: 100
[4]; [18]
  Plant response rating, Purslane: 100
[4]; [19]
  Plant response rating, Purslane: 100
[5]; [13]
  Plant response rating, Ragweed: 80
[5]; [14]
  Plant response rating, Ragweed: 80
[5]; [15]
  Plant response rating, Ragweed: 100
[5]; [20]
  Plant response rating, Ragweed: 80
[5]; [16]
  Plant response rating, Ragweed: 90
[5]; [17]
  Plant response rating, Ragweed: 95
[5]; [19]
  Plant response rating, Ragweed: 100
[5]; [21]
  Plant response rating, Ragweed: 100
[6]; [13]
  Plant response rating, Spanishneedles: 75
[6]; [14]
  Plant response rating, Spanishneedles: 90
[6]; [15]
  Plant response rating, Spanishneedles: 95
[6]; [20]
  Plant response rating, Spanishneedles: 75
[6]; [16]
  Plant response rating, Spanishneedles: 90
[6]; [17]
  Plant response rating, Spanishneedles: 98
[6]; [19]
  Plant response rating, Spanishneedles: 100
[6]; [21]
  Plant response rating, Spanishneedles: 98

## COc1ccc(-n2c(-c3ccccc3)ncc(C(=O)C3=C(O)CCCC3=O)c2=O)cc1OC [Compound 218]
[7]; [22]
  Plant response rating, Galium: 60
[7]; [23]
  Plant response rating, Galium: 80
[7]; [24]
  Plant response rating, Galium: 95
[7]
  Galium plant response rating: 100
[8]; [22]
  Plant response rating, Nightshade: 98
[8]; [23]
  Plant response rating, Nightshade: 98
[8]; [24]
  Plant response rating, Nightshade: 100
[8]
  Nightshade plant response rating: 100
[9]; [22]
  Plant response rating, Sunflower: 75
[9]; [23]
  Plant response rating, Sunflower: 80
[9]; [24]
  Plant response rating, Sunflower: 90
[9]
  Sunflower plant response rating: 95
[1]
  Plant response rating, Flood, Barnyardgrass: 40
  Barnyardgrass plant response rating: 0
[1]; [11]
  Plant response rating, Barnyardgrass: 0
[1]; [12]
  Plant response rating, Barnyardgrass: 30
[2]
  Plant response rating, Flood, Ducksalad: 95
  Ducksalad plant response rating: 75
[2]; [11]
  Plant response rating, Ducksalad: 80
[2]; [12]
  Plant response rating, Ducksalad: 85

## CCc1ccc(-n2c(-c3ccccc3)ncc(C(=O)C3=C(O)CCCC3=O)c2=O)cc1 [Compound 219]
[7]; [22]
  Plant response rating, Galium: 75
[7]; [23]
  Plant response rating, Galium: 85
[7]; [24]
  Plant response rating, Galium: 98
[7]
  Galium plant response rating: 100
[8]; [22]
  Plant response rating, Nightshade: 90
[8]; [23]
  Plant response rating, Nightshade: 98
[8]; [24]
  Plant response rating, Nightshade: 100
[8]
  Nightshade plant response rating: 100
[9]; [22]
  Plant response rating, Sunflower: 0
[9]; [23]
  Plant response rating, Sunflower: 45
[9]; [24]
  Plant response rating, Sunflower: 80
[9]
  Sunflower plant response rating: 85
[1]
  Plant response rating, Flood, Barnyardgrass: 60
  Barnyardgrass plant response rating: 0
[1]; [11]
  Plant response rating, Barnyardgrass: 0
[1]; [12]
  Plant response rating, Barnyardgrass: 20
[2]
  Plant response rating, Flood, Ducksalad: 90
  Ducksalad plant response rating: 0
[2]; [11]
  Plant response rating, Ducksalad: 20
[2]; [12]
  Plant response rating, Ducksalad: 65

## COCCn1c(-c2ccsc2)ncc(C(=O)C2=C(O)C3CCC(C3)C2=O)c1=O (stereo not shown) [Compound 228]
[1]
  Plant response rating, Flood, Barnyardgrass: 80
  Barnyardgrass plant response rating: 15
[1]; [11]
  Plant response rating, Barnyardgrass: 40
[1]; [12]
  Plant response rating, Barnyardgrass: 75
[2]
  Plant response rating, Flood, Ducksalad: 80
  Ducksalad plant response rating: 40
[2]; [11]
  Plant response rating, Ducksalad: 50
[2]; [12]
  Plant response rating, Ducksalad: 75
[10]; [15]
  Plant response rating, Russian Thistle: 65
[3]; [15]
  Plant response rating, Prickly Sida: 65
[4]; [15]
  Plant response rating, Purslane: 35
[5]; [15]
  Plant response rating, Ragweed: 75
[6]; [15]
  Plant response rating, Spanishneedles: 70

## COCCn1c(-c2cccc(C)c2)ncc(C(=O)C2=C(O)C3CCC(C3)C2=O)c1=O (stereo not shown) [Compound 233]
[1]
  Plant response rating, Flood, Barnyardgrass: 65
[1]; [11]
  Plant response rating, Barnyardgrass: 20
[2]
  Plant response rating, Flood, Ducksalad: 100
[2]; [11]
  Plant response rating, Ducksalad: 100
[10]; [15]
  Plant response rating, Russian Thistle: 10
[10]; [20]
  Plant response rating, Russian Thistle: 0
[10]; [16]
  Plant response rating, Russian Thistle: 50
[10]; [17]
  Plant response rating, Russian Thistle: 65
[10]; [19]
  Plant response rating, Russian Thistle: 100
[10]; [21]
  Plant response rating, Russian Thistle: 75
[3]; [13]
  Plant response rating, Prickly Sida: 50
[3]; [14]
  Plant response rating, Prickly Sida: 50
[3]; [15]
  Plant response rating, Prickly Sida: 60
[3]; [20]
  Plant response rating, Prickly Sida: 30
[3]; [16]
  Plant response rating, Prickly Sida: 0
[3]; [17]
  Plant response rating, Prickly Sida: 0
[3]; [18]
  Plant response rating, Prickly Sida: 0
[3]; [19]
  Plant response rating, Prickly Sida: 70
[4]; [13]
  Plant response rating, Purslane: 30
[4]; [14]
  Plant response rating, Purslane: 30
[4]; [15]
  Plant response rating, Purslane: 40
[4]; [20]
  Plant response rating, Purslane: 30
[4]; [16]
  Plant response rating, Purslane: 0
[4]; [17]
  Plant response rating, Purslane: 0
[4]; [18]
  Plant response rating, Purslane: 100
[4]; [19]
  Plant response rating, Purslane: 100
[5]; [13]
  Plant response rating, Ragweed: 75
[5]; [14]
  Plant response rating, Ragweed: 75
[5]; [15]
  Plant response rating, Ragweed: 98
[5]; [20]
  Plant response rating, Ragweed: 65
[5]; [16]
  Plant response rating, Ragweed: 50
[5]; [17]
  Plant response rating, Ragweed: 70
[5]; [19]
  Plant response rating, Ragweed: 98
[5]; [21]
  Plant response rating, Ragweed: 95
[6]; [13]
  Plant response rating, Spanishneedles: 35
[6]; [14]
  Plant response rating, Spanishneedles: 50
[6]; [15]
  Plant response rating, Spanishneedles: 60
[6]; [20]
  Plant response rating, Spanishneedles: 35
[6]; [16]
  Plant response rating, Spanishneedles: 0
[6]; [17]
  Plant response rating, Spanishneedles: 50
[6]; [19]
  Plant response rating, Spanishneedles: 95
[6]; [21]
  Plant response rating, Spanishneedles: 85

## CCc1ccccc1-n1c(-c2ccccc2)ncc(C(=O)C2=C(O)CCCC2=O)c1=O [Compound 255]
[7]; [22]
  Plant response rating, Galium: 0
[7]; [23]
  Plant response rating, Galium: 50
[7]; [24]
  Plant response rating, Galium: 60
[7]
  Galium plant response rating: 100
[8]; [22]
  Plant response rating, Nightshade: 75
[8]; [23]
  Plant response rating, Nightshade: 90
[8]; [24]
  Plant response rating, Nightshade: 100
[8]
  Nightshade plant response rating: 100
[9]; [22]
  Plant response rating, Sunflower: 45
[9]; [23]
  Plant response rating, Sunflower: 60
[9]; [24]
  Plant response rating, Sunflower: 75
[9]
  Sunflower plant response rating: 90
[1]
  Plant response rating, Flood, Barnyardgrass: 0
  Barnyardgrass plant response rating: 0
[1]; [11]
  Plant response rating, Barnyardgrass: 0
[1]; [12]
  Plant response rating, Barnyardgrass: 0
[2]
  Plant response rating, Flood, Ducksalad: 80
  Ducksalad plant response rating: 0
[2]; [11]
  Plant response rating, Ducksalad: 50
[2]; [12]
  Plant response rating, Ducksalad: 60
